Measurements published in US20250098679A1, “HERBICIDAL PYRIDONE DERIVATIVES” (SYNGENTA CROP PROTECTION AG, priority 2021, published 2025).

How the values were obtained:
Format in all cases: in vivo
Settings in all cases: evaluated after 13 days
[1] = test system: Zea mays (ZEAMX); experiment: Pre-emergence Test, Zea mays (ZEAMX)
[2] = test system: Setaria faberi (SETFA); experiment: Post-emergence Test, Setaria faberi (SETFA); set-up: key to percentage damage caused to the plant, SETFA (five-point scale): 5=81-100%, 4=61-80%, 3=41-60%, 2=21-40%, 1=0-20% damage
Method in brief: (§1)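 Spray application at 1000 g/ha unless otherwise stated. Damage was scored 13 days later as 1 (0-20%) to 5 (81-100%).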

[3] = test system: Setaria faberi (SETFA); experiment: Pre-emergence Test, Setaria faberi (SETFA)
[4] = test system: Amaranthus palmeri (AMAPA); experiment: Pre-emergence Test, Amaranthus palmeri (AMAPA)
[5] = test system: Ipomoea hederacea (IPOHE); experiment: Pre-emergence Test, Ipomoea hederacea (IPOHE)
[6] = test system: Zea mays (ZEAMX); experiment: Post-emergence Test, Zea mays (ZEAMX); set-up: key to percentage damage caused to the plant, ZEAMX (five-point scale): 5=81-100%, 4=61-80%, 3=41-60%, 2=21-40%, 1=0-20% damage
Method in brief: as §1

[7] = test system: Amaranthus retoflexus (AMARE); experiment: Pre-emergence Test, Amaranthus retoflexus (AMARE)
[8] = test system: Amaranthus palmeri (AMAPA); experiment: Post-emergence Test, Amaranthus palmeri (AMAPA); set-up: key: 5=81-100%, 4=61-80%, 3=41-60%, 2=21-40%, 1=0-20% damage
Method in brief: as §1

[9] = test system: Echinochloa crus-galli (ECHCG); experiment: Pre-emergence Test, Echinochloa crus-galli (ECHCG)
[10] = test system: Amaranthus retoflexus (AMARE); experiment: Post-emergence Test, Amaranthus retoflexus (AMARE); set-up: key to percentage damage caused to the plant, AMARE (five-point scale): 5=81-100%, 4=61-80%, 3=41-60%, 2=21-40%, 1=0-20% damage
Method in brief: as §1

[11] = test system: Ipomoea hederacea (IPOHE); experiment: Post-emergence Test, Ipomoea hederacea (IPOHE); set-up: key to percentage damage caused to the plant, IPOHE (five-point scale): 5=81-100%, 4=61-80%, 3=41-60%, 2=21-40%, 1=0-20% damage
Method in brief: as §1

[12] = test system: Echinochloa crus-galli (ECHCG); experiment: Post-emergence Test, Echinochloa crus-galli (ECHCG); set-up: key to percentage damage caused to the plant, ECHCG (five-point scale): 5=81-100%, 4=61-80%, 3=41-60%, 2=21-40%, 1=0-20% damage
Method in brief: as §1

Structure (SMILES) | Pre-emergence Test ZEAMX, percentage damage caused to the plant (five-point scale) ([1]; 1000 g/ha) | percentage damage caused to the plant, SETFA (five-point scale) ([2]; 250 g/Ha) | percentage damage caused to the plant, SETFA (five-point scale) ([2]; 1000 g/ha) | Pre-emergence Test SETFA, percentage damage caused to the plant (five-point scale) ([3]; 1000 g/ha) | Pre-emergence Test AMAPA, percentage damage caused to the plant (five-point scale) ([4]; 1000 g/ha) | Pre-emergence Test IPOHE, percentage damage caused to the plant (five-point scale) ([5]; 1000 g/ha) | percentage damage caused to the plant, ZEAMX (five-point scale) ([6]; 250 g/Ha) | percentage damage caused to the plant, ZEAMX (five-point scale) ([6]; 1000 g/ha) | Pre-emergence Test AMARE, percentage damage caused to the plant (five-point scale) ([7]; 1000 g/ha) | percentage damage caused to the plant, AMAPA (five-point scale) ([8]; 250 g/Ha) | percentage damage caused to the plant, AMAPA (five-point scale) ([8]; 1000 g/ha) | Pre-emergence Test ECHCG, percentage damage caused to the plant (five-point scale) ([9]; 1000 g/ha) | percentage damage caused to the plant, AMARE (five-point scale) ([10]; 250 g/Ha) | percentage damage caused to the plant, AMARE (five-point scale) ([10]; 1000 g/ha) | percentage damage caused to the plant, IPOHE (five-point scale) ([11]; 250 g/Ha) | percentage damage caused to the plant, IPOHE (five-point scale) ([11]; 1000 g/ha) | percentage damage caused to the plant, ECHCG (five-point scale) ([12]; 250 g/Ha) | percentage damage caused to the plant, ECHCG (five-point scale) ([12]; 1000 g/ha) | other results
CCn1c(Cn2nc(C(F)(F)F)cc2OC)cc(=O)c(C(=O)O)c1-c1ccc(Cl)c(Cl)c1 [Compound 145, 2-(3,4-dichlorophenyl)-1-ethyl-6-[[5-methoxy-3-(trifluoromethyl)pyrazol-1-yl]methyl]-4-oxo-pyridine-3-carboxylic acid] | 0 | 3 (3=41-60%) | 4 (4=61-80%) | 5 (5=81-100%) | 0 | 3 (3=41-60%) | 1 (1=0-20%) | 3 (3=41-60%) | 1 (1=0-20%) | 0 | 3 (3=41-60%) | 4 (4=61-80%) | 1 (1=0-20%) | 3 (3=41-60%) | 3 (3=41-60%) | 3 (3=41-60%) | 3 (3=41-60%) | 4 (4=61-80%) | Pre-emergence Test ZEAMX, percentage damage caused to the plant (five-point scale) ([1]; 250 g/Ha (*)): 0; Pre-emergence Test SETFA, percentage damage caused to the plant (five-point scale) ([3]; 250 g/Ha (*)): 5 (5=81-100%); Pre-emergence Test AMAPA, percentage damage caused to the plant (five-point scale) ([4]; 250 g/Ha (*)): 0; Pre-emergence Test IPOHE, percentage damage caused to the plant (five-point scale) ([5]; 250 g/Ha (*)): 0; Pre-emergence Test AMARE, percentage damage caused to the plant (five-point scale) ([7]; 250 g/Ha (*)): 0; Pre-emergence Test ECHCG, percentage damage caused to the plant (five-point scale) ([9]; 250 g/Ha (*)): 2 (2=21-40%)
CCn1c(Cn2nc(C(F)(F)F)nc2C)cc(=O)c(C(=O)O)c1-c1ccc(Cl)c(Cl)c1 [Compound 108, 2-(3,4-dichlorophenyl)-1-ethyl-6-[[5-methyl-3-(trifluoromethyl)-1,2,4-triazol-1-yl]methyl]-4-oxo-pyridine-3-carboxylic acid] | 0 | 1 (1=0-20%) | 2 (2=21-40%) | 0 | 0 | 0 | 0 | 1 (1=0-20%) | 0 | 0 | 0 | 0 | 0 | 0 | 0 | 0 | 1 (1=0-20%) | 2 (2=21-40%) | –
CCOC(=O)c1c(-c2ccc(Cl)c(Cl)c2)n(CC)c(Cn2ccc(Cl)n2)c(Br)c1=O [Compound 27, ethyl 5-bromo-6-[(3-chloropyrazo1-1-yl)methyl]-2-(3,4-dichlorophenyl)-1-ethyl-4-oxo-pyridine-3-carboxylate] | 0 | – | 0 | 0 | 0 | 0 | – | 0 | 1 (1=0-20%) | – | 0 | 0 | – | 0 | – | 0 | – | 0 | –
